Experimental data taken from ChEMBL document CHEMBL5365471, “Discovery of marine phidianidine-based Nrf2 activators and their potential against oxLDL- and HG-induced injury in HUVECs” (Bioorg Med Chem Lett, 2023).
Calls of active or inactive are those of the source. No cut-off for these calls is given here.

Experiments:
[1] = target: T1, Nuclear factor erythroid 2-related factor 2 (Homo sapiens) (UniProt Q16236); assay: Induction of Nrf2/ARE activation in human Hela cells at 1 uM measured after 12 to 24 hrs by luciferase reporter gene assay relative to control; format: cell-based; details: filed as activator, time 12-24 hrs
T1 sequence (whole entry): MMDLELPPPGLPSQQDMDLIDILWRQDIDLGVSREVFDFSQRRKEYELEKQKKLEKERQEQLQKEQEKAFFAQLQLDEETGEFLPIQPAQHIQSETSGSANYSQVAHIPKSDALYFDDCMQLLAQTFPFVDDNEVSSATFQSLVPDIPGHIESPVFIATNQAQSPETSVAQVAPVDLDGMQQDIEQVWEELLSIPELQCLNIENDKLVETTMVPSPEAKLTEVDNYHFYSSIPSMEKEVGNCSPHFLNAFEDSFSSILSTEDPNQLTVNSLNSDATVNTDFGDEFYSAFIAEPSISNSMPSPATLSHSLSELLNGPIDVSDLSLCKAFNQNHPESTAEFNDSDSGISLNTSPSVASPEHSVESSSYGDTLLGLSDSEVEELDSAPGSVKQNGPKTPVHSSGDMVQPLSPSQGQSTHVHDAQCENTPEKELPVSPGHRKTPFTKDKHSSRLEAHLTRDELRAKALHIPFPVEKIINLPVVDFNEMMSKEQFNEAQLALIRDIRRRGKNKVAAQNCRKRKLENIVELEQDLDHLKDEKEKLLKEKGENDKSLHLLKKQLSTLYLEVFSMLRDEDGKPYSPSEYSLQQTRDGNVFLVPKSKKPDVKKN

[2] = target: T1, Nuclear factor erythroid 2-related factor 2 (Homo sapiens); assay: Induction of Nrf2/ARE activation in human Hela cells at 5 uM measured after 12 to 24 hrs by luciferase reporter gene assay relative to control; format: cell-based; details: filed as activator, time 12-24 hrs
[3] = target: T1, Nuclear factor erythroid 2-related factor 2 (Homo sapiens); assay: Induction of Nrf2/ARE activation in human Hela cells at 10 uM measured after 12 to 24 hrs by luciferase reporter gene assay relative to control; format: cell-based; details: filed as activator, time 12-24 hrs
[4] = target: T1, Nuclear factor erythroid 2-related factor 2 (Homo sapiens); assay: Induction of Nrf2/ARE activation in human Hela cells at 20 uM measured after 12 to 24 hrs by luciferase reporter gene assay relative to control; format: cell-based; details: filed as activator, time 12-24 hrs
[5] = system: HUVEC; assay: Cytotoxicity against HUVEC assessed as effect on cell viability by SRB assay; format: toxicity, cell-based; details: human
[6] = system: HUVEC; assay: Cytoprotective activity against oxLDL-induced HUVEC cell damage assessed as increase in cell viability at 10 uM by SRB assay; format: functional, cell-based; details: Homo sapiens

Brc1ccc(CN2CCN(Cc3noc(Cc4c[nH]c5ccccc45)n3)CC2)cc1
fold change (FC) [1]: 1.45
fold change (FC) [2]: 2.16
fold change (FC) [3]: 3.14
fold change (FC) [4]: 3.56

O=C(/C=C/c1ccccc1)N1CCN(Cc2noc(Cc3c[nH]c4ccccc34)n2)CC1
fold change (FC) [1]: 1.05
fold change (FC) [2]: 1.32
fold change (FC) [3]: 2.57
fold change (FC) [4]: 2.89

COc1ccc(/C=C/C(=O)N2CCN(Cc3noc(Cc4c[nH]c5ccccc45)n3)CC2)cc1OC
fold change (FC) [1]: 1.34
fold change (FC) [2]: 2.93
fold change (FC) [3]: 5.79
fold change (FC) [4]: 7.22

COc1ccc(OC)c(/C=C/C(=O)N2CCN(Cc3noc(Cc4c[nH]c5ccccc45)n3)CC2)c1
fold change (FC) [1]: 1.12
fold change (FC) [2]: 1.77
fold change (FC) [3]: 4.35
fold change (FC) [4]: 3.66

O=C(/C=C/c1ccc2c(c1)OCO2)N1CCN(Cc2noc(Cc3c[nH]c4ccccc34)n2)CC1
fold change (FC) [1]: 1.12
fold change (FC) [2]: 2.07
fold change (FC) [3]: 4.97
fold change (FC) [4]: 3.24

O=C(/C=C/c1cccc(O)c1)N1CCN(Cc2noc(Cc3c[nH]c4ccccc34)n2)CC1
Activity [5]: Non-Toxic
fold change (FC) [1]: 2.3
fold change (FC) [2]: 4.71
fold change (FC) [3]: 7.04
fold change (FC) [4]: 7.21
Activity [6]: Active

Fc1cccc(CN2CCN(Cc3noc(Cc4c[nH]c5ccccc45)n3)CC2)c1
fold change (FC) [1]: 1.36
fold change (FC) [2]: 1.42
fold change (FC) [3]: 1.54
fold change (FC) [4]: 1.86

Cc1ccc(CN2CCN(Cc3noc(Cc4c[nH]c5ccccc45)n3)CC2)cc1
fold change (FC) [1]: 1.18
fold change (FC) [2]: 1.78
fold change (FC) [3]: 2.11
fold change (FC) [4]: 2.45

COc1cc(/C=C/C(=O)N2CCN(Cc3noc(Cc4c[nH]c5ccccc45)n3)CC2)ccc1O
fold change (FC) [1]: 1.29
fold change (FC) [2]: 2.34
fold change (FC) [3]: 3.12
fold change (FC) [4]: 3.56

COc1cccc(/C=C/C(=O)N2CCN(Cc3noc(Cc4c[nH]c5ccccc45)n3)CC2)c1
fold change (FC) [1]: 1.09
fold change (FC) [2]: 1.89
fold change (FC) [3]: 2.97
fold change (FC) [4]: 4.07

c1ccc(CN2CCN(Cc3noc(Cc4c[nH]c5ccccc45)n3)CC2)cc1
fold change (FC) [1]: 1.09
fold change (FC) [2]: 1.51
fold change (FC) [3]: 1.64
fold change (FC) [4]: 2.09

O=C(/C=C/c1cccc(Br)c1)N1CCN(Cc2noc(Cc3c[nH]c4ccccc34)n2)CC1
Activity [5]: Non-Toxic
fold change (FC) [1]: 1.31
fold change (FC) [2]: 1.86
fold change (FC) [3]: 3.97
fold change (FC) [4]: 2.56
Activity [6]: inactive

Cc1ccc(C(=O)N2CCN(Cc3noc(Cc4c[nH]c5ccccc45)n3)CC2)cc1
fold change (FC) [1]: 1.04
fold change (FC) [2]: 1.11
fold change (FC) [3]: 1.23
fold change (FC) [4]: 1.36

c1ccc2cc(CN3CCN(Cc4noc(Cc5c[nH]c6ccccc56)n4)CC3)ccc2c1
fold change (FC) [1]: 1.09
fold change (FC) [2]: 1.51
fold change (FC) [3]: 1.86
fold change (FC) [4]: 2.04

CS(=O)(=O)c1ccc(C(=O)N2CCN(Cc3noc(Cc4c[nH]c5ccccc45)n3)CC2)cc1
fold change (FC) [1]: 1.45
fold change (FC) [2]: 1.5
fold change (FC) [3]: 1.52
fold change (FC) [4]: 1.67

O=C(c1ccccc1)N1CCN(Cc2noc(Cc3c[nH]c4ccccc34)n2)CC1
fold change (FC) [1]: 1.03
fold change (FC) [2]: 1.31
fold change (FC) [3]: 1.44
fold change (FC) [4]: 1.21

O=C(/C=C/c1ccc(Cl)cc1)N1CCN(Cc2noc(Cc3c[nH]c4ccccc34)n2)CC1
Activity [5]: Non-Toxic
fold change (FC) [1]: 1.21
fold change (FC) [2]: 2.24
fold change (FC) [3]: 4.09
fold change (FC) [4]: 6.12
Activity [6]: Active

CS(=O)(=O)c1ccc(CN2CCN(Cc3noc(Cc4c[nH]c5ccccc45)n3)CC2)cc1
fold change (FC) [1]: 1.11
fold change (FC) [2]: 2.04
fold change (FC) [3]: 3.15
fold change (FC) [4]: 3.78

CC(C)(C)c1cc(O)ccc1O
fold change (FC) [1]: 1.17
fold change (FC) [2]: 1.24
fold change (FC) [3]: 1.98
fold change (FC) [4]: 2.78

O=C(/C=C/c1ccccc1O)N1CCN(Cc2noc(Cc3c[nH]c4ccccc34)n2)CC1
fold change (FC) [1]: 1.2
fold change (FC) [2]: 3.01
fold change (FC) [3]: 6.31
fold change (FC) [4]: 6.08

COc1cccc(CN2CCN(Cc3noc(Cc4c[nH]c5ccccc45)n3)CC2)c1
fold change (FC) [1]: 1.15
fold change (FC) [2]: 1.12
fold change (FC) [3]: 1.43
fold change (FC) [4]: 1.47

COc1cc(/C=C/C(=O)N2CCN(Cc3noc(Cc4c[nH]c5ccccc45)n3)CC2)cc(OC)c1OC
fold change (FC) [1]: 1.24
fold change (FC) [2]: 2.6
fold change (FC) [3]: 6.23
fold change (FC) [4]: 6.86

O=C(/C=C/c1ccc(O)c(O)c1)N1CCN(Cc2noc(Cc3c[nH]c4ccccc34)n2)CC1
fold change (FC) [1]: 1.41
fold change (FC) [2]: 2.96
fold change (FC) [3]: 6.92
fold change (FC) [4]: 7.86

O=C(/C=C/c1ccc(Cl)c(Cl)c1)N1CCN(Cc2noc(Cc3c[nH]c4ccccc34)n2)CC1
Activity [5]: Non-Toxic
fold change (FC) [1]: 1.34
fold change (FC) [2]: 3.76
fold change (FC) [3]: 6.64
fold change (FC) [4]: 7.09
Activity [6]: Active

COc1ccc(/C=C/C(=O)N2CCN(Cc3noc(Cc4c[nH]c5ccccc45)n3)CC2)cc1
fold change (FC) [1]: 1.22
fold change (FC) [2]: 1.65
fold change (FC) [3]: 1.96
fold change (FC) [4]: 2.07

COc1cccc(/C=C/C(=O)N2CCN(Cc3noc(Cc4c[nH]c5ccccc45)n3)CC2)c1OC
Activity [5]: Non-Toxic
fold change (FC) [1]: 2.15
fold change (FC) [2]: 3.65
fold change (FC) [3]: 6.91
fold change (FC) [4]: 6.37
Activity [6]: inactive

COc1cc(OC)c(OC)cc1/C=C/C(=O)N1CCN(Cc2noc(Cc3c[nH]c4ccccc34)n2)CC1
Activity [5]: Non-Toxic
fold change (FC) [1]: 1.32
fold change (FC) [2]: 2.79
fold change (FC) [3]: 5.79
fold change (FC) [4]: 5.46
Activity [6]: inactive

Brc1cccc(CN2CCN(Cc3noc(Cc4c[nH]c5ccccc45)n3)CC2)c1
fold change (FC) [1]: 1.12
fold change (FC) [2]: 1.25
fold change (FC) [3]: 1.31
fold change (FC) [4]: 1.54

O=C(c1ccc(Br)cc1)N1CCN(Cc2noc(Cc3c[nH]c4ccccc34)n2)CC1
fold change (FC) [1]: 1.15
fold change (FC) [2]: 1.21
fold change (FC) [3]: 1.28
fold change (FC) [4]: 1.52

N#Cc1ccc(C(=O)N2CCN(Cc3noc(Cc4c[nH]c5ccccc45)n3)CC2)cc1
fold change (FC) [1]: 1.18
fold change (FC) [2]: 1.25
fold change (FC) [3]: 1.37
fold change (FC) [4]: 1.4

COc1ccccc1/C=C/C(=O)N1CCN(Cc2noc(Cc3c[nH]c4ccccc34)n2)CC1
fold change (FC) [1]: 1.23
fold change (FC) [2]: 2.41
fold change (FC) [3]: 3.12
fold change (FC) [4]: 4.25

O=C(/C=C/c1ccc(O)cc1)N1CCN(Cc2noc(Cc3c[nH]c4ccccc34)n2)CC1
Activity [5]: Non-Toxic
fold change (FC) [1]: 1.52
fold change (FC) [2]: 3.44
fold change (FC) [3]: 6.25
fold change (FC) [4]: 5.41
Activity [6]: inactive

COc1cc(/C=C/C(=O)N2CCN(Cc3noc(Cc4c[nH]c5ccccc45)n3)CC2)cc(OC)c1O
fold change (FC) [1]: 1.23
fold change (FC) [2]: 1.87
fold change (FC) [3]: 2.65
fold change (FC) [4]: 3.08
